In patent US7723325B2, “5-amido-indole-2-carboxamide derivatives” (Hoffman-La Roche Inc., priority 2006, dated 2010):

The compounds below were run against T1, histamine 3 receptor (H3R) (Homo sapiens, UniProt Q9Y5N1) (assay: Binding assay with 3H-(R)α-Methylhistamine (competition binding, HR3-CHO membranes)). Settings: competition binding vs 3H(R)α-Methylhistamine (1 nM), membrane of the human HR3-CHO cell line; Ki calculated from IC50 (Cheng-Prusoff).
T1 construct: expressed in transfected cells; host or cells: CHO
T1 sequence (Q9Y5N1 whole entry): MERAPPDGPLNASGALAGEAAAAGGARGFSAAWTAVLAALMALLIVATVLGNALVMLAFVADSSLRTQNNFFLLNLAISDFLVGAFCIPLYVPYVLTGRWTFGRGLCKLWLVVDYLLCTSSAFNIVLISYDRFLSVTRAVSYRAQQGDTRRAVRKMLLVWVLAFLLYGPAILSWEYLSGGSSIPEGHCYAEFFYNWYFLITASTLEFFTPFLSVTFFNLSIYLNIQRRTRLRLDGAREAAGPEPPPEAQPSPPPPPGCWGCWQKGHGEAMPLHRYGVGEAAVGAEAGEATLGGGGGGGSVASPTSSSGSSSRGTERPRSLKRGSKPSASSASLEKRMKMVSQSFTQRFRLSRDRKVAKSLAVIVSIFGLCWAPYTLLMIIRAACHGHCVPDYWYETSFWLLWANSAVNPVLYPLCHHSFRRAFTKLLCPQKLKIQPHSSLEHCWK
Procedure: Binding Assay with ^3H—(R)α-Methylhistamine
Saturation binding experiments were performed using HR3-CHO membranes prepared as described in Takahashi, K, Tokita, S., Kotani, H. (2003) J. Pharmacol. Exp. Therapeutics 307, 213-218.
An appropriate amount of membrane (60 to 80 μg protein/well) was incubated with increasing concentrations of ^3H(R)α-Methylhistamine di-hydrochloride (0.10 to 10 nM). Non specific binding was determined using a 200 fold excess of cold (R)α-Methylhistamine dihydrobromide (500 nM final concentration). The incubation was carried out at room temperature (in deep-well plates shaking for three hours). The final volume in each well was 250 μl. The incubation was followed by rapid filtration on GF/B filters (pre-soaked with 100 μl of 0.5% PEI in Tris 50 mM shaking at 200 rpm for two hours). The filtration was made using a cell-harvester and the filter plates were then washed five times with ice cold washing buffer containing 0.5 M NaCl. After harvesting, the plates were dried at 55° C. for 60 min, then we added scintillation fluid (Microscint 40, 40 microl in each well) and the amount of radioactivity on the filter was determined in Packard top-counter after shaking the plates for two hours at 200 rpm at room temperature.
Binding Buffer: 50 mM Tris-HCl pH 7.4 and 5 mM MgCl2x6H2O pH 7.4. Washing Buffer: 50 mM Tris-HCl pH 7.4 and 5 mM MgCl2x6H2O and 0.5 M NaCl pH 7.4.
Indirect measurement of affinity of H3R inverse agonists: twelve increasing concentrations (ranging from 10 μM to 0.3 nM) of the selected compounds were always tested in competition binding experiments using membrane of the human HR3-CHO cell line. An appropriate amount of protein, e.g. approximately 500 cpm binding of RAMH at Kd, were incubated for 1 hour at room temperature in 250 μl final volume in 96-well plates in presence of ^3H(R)α-Methylhistamine (1 nM final concentration=Kd). Non-specific binding was determined using a 200 fold excess of cold (R)α-Methylhistamine dihydrobromide.
All compounds were tested at a single concentration in duplicates. […] Ki's were calculated from IC50 based on Cheng-Prusoff equation (Cheng, Y, Prusoff, W H (1973) Biochem Pharmacol 22, 3099-3108).

Ki | Compound
28.7 nM | O=C(c1ccc2[nH]c(C(=O)N3CCCCC3)cc2c1)N1CCN(C2CCCC2)CC1 [Example 5, [5-(4-Cyclopentyl-piperazine-1-carbonyl)-1H-indol-2-yl]-piperidin-1-yl-methanone]
35.6 nM | COc1cccc(-n2c(C(=O)N3CCC(F)(F)CC3)cc3cc(C(=O)N4CCN(C5CCCC5)CC4)ccc32)c1 [Example 84, [5-(4-Cyclopentyl-piperazine-1-carbonyl)-1-(3-methoxy-phenyl)-1H-indol-2-yl]-(4,4-difluoro-piperidin-1-yl)-methanone]
13.4 nM | CC(C)N1CCN(C(=O)c2ccc3c(c2)cc(C(=O)N2CCS(=O)(=O)CC2)n3-c2cccc(Cl)c2)CC1 [Example 97, [1-(3-Chloro-phenyl)-5-(4-isopropyl-piperazine-1-carbonyl)-1H-indol-2-yl]-(1,1-dioxo-thiomorpholin-4-yl)-methanone]
25.2 nM | CC(C)N1CCN(C(=O)c2ccc3c(c2)cc(C(=O)N2CCC(F)(F)CC2)n3C2CCC2)CC1 [Example 150, [1-Cyclobutyl-2-(4,4-difluoro-piperidine-1-carbonyl)-1H-indol-5-yl]-(4-isopropyl-piperazin-1-yl)-methanone]
22.6 nM | CC(C)N1CCN(C(=O)c2ccc3c(c2)cc(C(=O)N2CCS(=O)(=O)CC2)n3-c2ccc(S(C)(=O)=O)cc2)CC1 [Example 221, (1,1-Dioxothiomorpholin-4-yl)-[5-(4-isopropyl-piperazine-1-carbonyl)-1-(4-methanesulfonyl-phenyl)-1H-indol-2-yl]-methanone]
41 nM | CC(C)N1CCCN(C(=O)c2ccc3[nH]c(C(=O)N4CCS(=O)(=O)CC4)cc3c2)CC1 [Example 245, (1,1-Dioxo-thiomorpholin-4-yl)-[5-(4-isopropyl-[1,4]diazepane-1-carbonyl)-1H-indol-2-yl]-methanone]
